This is an account of results in patent US20260028330A1, “HETEROARYL CARBOXAMIDE AND RELATED GPR84 ANTAGONISTS AND USES THEREOF” (LIMINAL BIOSCIENCES LIMITED, priority 2022, published 2026).

The test system of experiment [1] is dextran sodium sulfate-induced chronic inflammatory bowel disease model. Conditions: once-daily doses of 3 and 10 mg/kg; mouse; cited from earlier work.
For another experiment, the target named is T1, human GPR84 receptor (Homo sapiens, UniProt Q9NQS5).
T1 construct: host or cells: HEK293 cells, transient transfection
T1 sequence (Q9NQS5 whole entry): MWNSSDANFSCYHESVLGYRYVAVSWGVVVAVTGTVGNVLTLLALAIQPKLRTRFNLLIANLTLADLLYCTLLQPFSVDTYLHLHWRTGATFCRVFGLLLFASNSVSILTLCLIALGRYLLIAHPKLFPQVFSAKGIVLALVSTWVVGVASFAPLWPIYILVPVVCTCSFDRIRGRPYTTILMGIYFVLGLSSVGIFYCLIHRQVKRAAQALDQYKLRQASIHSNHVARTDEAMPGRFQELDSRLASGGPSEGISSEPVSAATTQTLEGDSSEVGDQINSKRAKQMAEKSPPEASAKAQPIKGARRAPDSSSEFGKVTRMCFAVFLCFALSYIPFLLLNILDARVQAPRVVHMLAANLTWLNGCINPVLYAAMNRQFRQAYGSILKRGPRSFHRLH
As to the kind of experiment: Gαi biosensor BRET assay in transfected HEK293 cells (antagonism of GPR84 agonist ZQ-16). The class given is cell-based. The conditions noted are these: 200 nmol/L ZQ-16; for inhibition at 2 µM / inhibition at 10 µM: HEK293, single concentration; for inhibition at 2 µM: code A = 2 μM; for inhibition at 10 µM: code F = 10 μM. An excerpt:
Background—The following assays can be used for determination of GPR84 activation in living HEK293 cells. The Gαi BRET biosensor (Gagnon et al., 2018; Gales et al., 2006. Nat Struct Mol Biol. 13, 778-86; Saulieres et al., 2012. Nat Chem Biol. 8, 622-30) allows to directly monitor GPR84-mediated activation of Gαi. The Gαi biosensor consists of a Rluc8-tagged Gαi2 subunit, a GFP10-tagged Gγ2 subunit, and an untagged Gβ1. Agonist stimulation and GPR84 activation triggers a physical separation between the RLuc8-Gαi donor and the GFP10-Gγ2 acceptor, resulting in a decrease in BRET signal whose amplitude is correlated to ligand efficacy (Gales et al., 2006). Moreover, signaling functions of GPCRs are tightly regulated by endocytosis, the targeting of receptors to endosomes and their sorting to lysosomes or recycling to the plasma membrane. The early endosomes (EEs) trafficking assay (Namkung et al., 2016. Nat Commun. 7, 12178) uses Rluc8-tagged GPR84 and Renilla GFP (rGFP) attached to the FYVE domain from human endofin/zinc finger FYVE domain-containing protein 16, which binds phosphatidylinositol 3-phosphate in EEs. Agonist stimulation of GPR84-Rluc8 leads to trafficking of the receptor to EEs, and ensuing increase of the donor concentration relative to the rGFP-FYVE acceptor anchored in the same cellular compartment, and thus results in an increase in BRET signal.
Plasmids—The cDNA clones for human GPR84 receptor, human Gαi2, Gβ1, and Gγ2 were obtained from the cDNA Resource Center (www.cdna.org). GFP10 (F64L, S147P, S202F and H231L variant of Aequorea victoria Green Fluorescent Protein) gBlocks gene fragments (Integrated DNA Technologies, IA) and linker were inserted in frame at the N-terminus of human Gγ2. Rluc8 (A55T, C124A, S130A, K136R, A143M, M185V, M253L, and S287L variant of the Renilla reniformis luciferase) gBlocks gene fragment was inserted with linkers in frame in between residues 91 and 92 of Gα2 or at the C-terminus of GPR84. The FYVE domain from human endofin (residues Q739 to K806) attached in frame at the C terminus of a humanized Renilla GFP (rGFP), were synthesized as gBlocks gene fragments.
Bioluminescence Resonance Energy Transfer (BRET) Measurement—HEK293 cells were transfected with GPR84-Rluc8 and rGFP-FYVE for the EEs trafficking biosensor or with GPR84, Gαi2-Rluc8, GFP10-Gγ2, and Gβ1 for the Gαi biosensor. The following day, transiently transfected cells were seeded in 96-well white clear bottom microplates coated with poly-D-lysine and left in culture for 24 hours. Cells were washed once with Tyrode's buffer (140 mmol/L NaCl, 1 mmol/L CaCl2, 2.7 mmol/L KCl, 0.49 mmol/L MgCl2, 0.37 mmol/L NaH2PO4, 5.6 mmol/L glucose, 12 mmol/L NaHCO3, and 25 mmol/L HEPES, pH 7.5) before performing assays in Tyrode's buffer. Test compounds were incubated with cells for 5 (Gui) or 15 (EEs) minutes at 37° C. before addition of 200 nmol/L of the GPR84 agonist ZQ-16 (2-(Hexylthio)-6-hydroxy-4(3H)-pyrimidinone) for 5 minutes at room temperature (Gui) or 30 minutes at 37° C. (EEs). The Rluc8 substrate coelenterazine 400A (Prolume, Lakeside, AZ) was added at a final concentration of 5 μmol/L and BRET readings were collected using an Infinite M1000 microplate reader (Tecan, Morrisville, NC). BRET^2 readings between Rluc8 and GFP10 or rGFP were collected by sequential integration of the signals detected in the 370 to 450 nm (Rluc8) and 510 to 540 nm (GFP10, rGFP) windows. The BRET signal was calculated as the ratio of light emitted by acceptor (GFP10, rGFP) over the light emitted by donor (Rluc8). The values were corrected to net BRET by subtracting the background BRET signal obtained in cells transfected with Rluc8 constructs alone. Ligand-promoted net BRET values were calculated by subtracting vehicle-induced net BRET from ligand-induced net BRET.
A general note: In BRET a luciferase serves as donor, and the signal depends on an acceptor being close.

By IC50 is commonly meant the concentration that gives 50% inhibition. A lower IC50 goes with greater potency in that assay. As usually defined, the inhibition is the change of the read-out against control, counted positive when it falls. Read a low inhibition as little suppression.

`O=c1nc(OC[C@@H]2COCCO2)cc2n1CCc1cc(C#CC3CC3)ccc1-2` [GLPG1205]: in experiment [1], the “disease activity index score” value is recorded as “reduced” and the neutrophil infiltration result is listed as “reduced”.
At human GPR84 receptor, `CN(C(=O)c1cn(CC2OCC3(CC3)CO2)nn1)c1ccc(C#CC2CC2)cc1Br` [Compound I-38] returned an IC50 not above 300 nM and an inhibition at 2 µM of more than 75%.
On human GPR84 receptor, `Cc1cc(C#CC2CC2)ccc1N(C(=O)c1cn(CC2OCC3(CC3)CO2)nn1)C(C)C` [Compound I-84] gave a concentration for half-maximal inhibition (IC50) not above 300 nM and an inhibition at 2 µM of more than 75%.
As for `Cc1cc(C#CC2CC2)ccc1N(C)C(=O)c1cnn(CC2OCC3(CC3)CO2)c1` [Compound I-105], at human GPR84 receptor, the IC50 is 300 to 1000 nM and the inhibition at 10 µM was more than 75%.
Take `Cc1cc(C#CC2CC2)cc2c1C(N(C)c1cn(CC3OCC4(CC4)CO3)nn1)CC2` (centres unmarked) [Compound I-53]: at human GPR84 receptor, the inhibition at 10 µM fell in the range of 25 to 50%.
For `Cc1ccc(C#CC2CC2)cc1NC(=O)c1cn(CC2OCC3(CC3)CO2)nn1` [Compound I-14], the inhibition at 10 µM at human GPR84 receptor is not above 25%.
The compound `Cc1cc(C#CC2CC2)ccc1/N=C(\OC(C)C)c1cn(CC2OCC3(CC3)CO2)nn1` [Compound I-85] registered an inhibition at 10 µM at human GPR84 receptor of 25 to 50%.
